Patent US20260207569A1, “LPA1 ANTAGONISTS FOR TREATING INTERSTITIAL LUNG DISEASE” (Bristol-Myers Squibb Company, priority 2022, published 2026)

System: participants with PPF
Test: Phase 2 PPF cohort efficacy: rate of FVC decline (% predicted) / FVC to Week 26
Format: in vivo, human
Settings: for Mean observed change from baseline in ppFVC and FVC vs placebo: to week 26
Description: A total of 123 participants with PPF were randomized. Participants (age ≥21 years) were randomized (1:1:1) to receive 30 mg or 60 mg Compound A or PBO twice daily for 26 weeks. […] Immunosuppressive medications (mycophenolate mofetil, mycophenolic acid, azathioprine and/or tacrolimus) were permitted only if dosing is stable for ≥6 months prior to screening. If receiving antifibrotic agents pirfenidone or nintedanib, patients had to receive a stable dosage for ≥3 months prior to screening and during the screening period; if not receiving pirfenidone or nintedanib, patients had to be naive to both drugs or not have received either 4 weeks prior to Day 1. A total of 47 (38.2%) subjects were receiving antifibrotic treatment (with or without immunosuppression therapy). Of those subjects, 34 were being treated with nintedanib and 13 with pirfenidone. Participants were stratified by usual interstitial pneumonia (UIP) pattern (presence versus absence) and background therapy (antifibrotics +/−ILD-targeted immunosuppression versus ILD-targeted immunosuppression alone versus none). UIP pattern was present in 52% of subjects and unclassifiable ILD was he most common disease categorization.
The study was not powered to detect statistical significance (no formal testing). No target effect size was defined in the study design. There were two estimand approaches for analysis: • Treatment Policy: Effect of treatment with dose reduction as part of treatment regimen. • While-On Treatment: Effect of treatment without dose reduction.
The main efficacy endpoint, rate of FVC decline (in % of predicted) from baseline to wk-26 in the PPF cohort, was estimated using a linear mixed-effects model utilizing all FVC timepoints. It was analyzed under a primary estimand (utilizing all data, treatment policy strategy), and under supplementary estimand (utilizing all data up to the point of dose reduction, while-on-treatment strategy). Analysis was performed in the overall population as well as in sub-groups by 1) background anti-fibrotic treatment or not 2) UIP radiographic pattern (presence or not). The mean baseline ppFVC was 66.7% for the PPF cohort.

## CCCN(C)C(=O)OCc1c(-c2ccc(O[C@H]3CCC[C@H](C(=O)O)C3)c(C)n2)nnn1C [Compound A, (1S,3S)-3-((2-methyl-6-(1-methyl-5-(((methyl(propyl)carbamoyl)-oxy)methyl)-1H-1,2,3-triazol-4-yl)pyridin-3-yl)oxy)cyclohexane-1-carboxylic acid]
PPF cohort
  Treatment differences by UIP pattern: treatment differences were seen in the PPF cohort independent of UIP pattern presence or absence
  Treatment differences in rates of change in ppFVC by background antifibrotic use: consistent with or without background antifibrotic use
PPF cohort, 30 mg and 60 mg BID
  Dose response of efficacy: Clear dose response
PPF cohort, background antifibrotics, UIP pattern
  Consistency of efficacy across sub-groups: Efficacy consistent in all sub-groups
PPF, 30 mg BID, UIP absent, supplementary estimand
  Rate of decline in FVC (% Predicted), slope: −2.24 % Predicted
PPF, 30 mg BID, UIP present, primary estimand
  Rate of decline in FVC (% Predicted), slope: −3.07 % Predicted
PPF, 30 mg BID, not receiving antifibrotic treatment, supplementary estimand
  Rate of decline in FVC (% Predicted), slope: −2.83 % Predicted
PPF, 30 mg BID, overall population, primary estimand (treatment policy), 26 weeks
  Rate of decline in FVC (% Predicted), slope: −2.7 % Predicted
PPF, 30 mg BID, receiving antifibrotic treatment, supplementary estimand
  Rate of decline in FVC (% Predicted), slope: −1.8 % Predicted
PPF, 30 mg BID
  Mean observed change from baseline in ppFVC and FVC vs placebo: shows more significant improvement after week 20
PPF, 60 mg BID, UIP absent, supplementary estimand
  Rate of decline in FVC (% Predicted), slope: −0.7 % Predicted
PPF, 60 mg BID, UIP present, primary estimand
  Rate of decline in FVC (% Predicted), slope: −1.46 % Predicted
PPF, 60 mg BID, not receiving antifibrotic treatment, supplementary estimand
  Rate of decline in FVC (% Predicted), slope: −1.56 % Predicted
PPF, 60 mg BID, overall population, supplementary estimand (while on treatment), 26 weeks
  Rate of decline in FVC (% Predicted), slope: −1.3 % Predicted
PPF, 60 mg BID, receiving antifibrotic treatment, supplementary estimand
  Rate of decline in FVC (% Predicted), slope: −1.1 % Predicted
PPF, 60 mg BID
  Mean observed change from baseline in ppFVC and FVC vs placebo: maintains the improvement over placebo through the end of week 26
PPF, UIP absent, supplementary estimand
  Slope difference, 60 mg − placebo: 3.8 % Predicted
PPF, UIP present, primary estimand
  Slope difference, 30 mg − placebo: 0.88 % Predicted
PPF, overall population, primary estimand (treatment policy)
  Slope difference (S.E.), 60 mg − placebo: 3.2 % Predicted
PPF, overall population, supplementary estimand (while on treatment)
  Slope difference (S.E.), 60 mg − placebo: 2.9 % Predicted
